Key:
[1] = Dose range of PHA pre-dosing against 5-FU damage of the gastrointestinal tract (Example 8); type: in vivo, rats; settings: pair fed, 150 mg/kg/BW 5-FU, day 9
Procedure: (§1) 300mg of 5-fluorouracil was stirred in 14ml of distilled water. 1M NaOH was added slowly until the 5-FU had dissolved. The solution was made up to a final volume of 20 ml. The final pH of the solution was 8.3. A dose of 150 mg/kg body weight was administered to the animal by intraperitoneal injection. Immediately after the injection, the rats were offered 15 g of the control diet and food was available ad-libitum for the remainder of the experiment.
3 groups of rats (5 rats per group) were fed on the standard diet (Table 1) and gavaged daily with either 200, 100 & 50 mg/kg/day PHA for 3 days. The food intake for each rat was recorded daily. A second set of 3 control groups of rats (5 rats per group) were fed on the standard diet and gavaged daily with 1 ml saline for 3 days. Each animal of the control group was pair fed to an animal in the PHA dosed groups. On the morning of the 4th day, each animal was injected with 150 mg/kg bodyweight 5-FU and then fed the standard diet for 6 days. 2 rats were fed on the standard diet ad libitum for 9 days. On the 9th day, the rats were killed and the animals dissected. After freezing in liquid nitrogen, the wet tissue weights were recorded.

[2] = Protection of rats from 5-FU chemotherapy by oral PHA (Example 7); type: in vivo
Procedure: as §1
Four groups, each consisting of 5 rats were maintained on a precise dietary regime for a period of 7 days (Table 11).
Rats (approx […]) pre-dosed with PHA were offered 10 g of the control diet (Table 1) containing 10% lactalbumin. Each animal was given the equivalent of 20 mg PHA in 0.9% saline by gavage. Rats were offered control diet in two feeds at 1000 & 1700 hours. The amount of food given was strictly paired to the amount of diet eaten by the PHA pre-dosed animals. If the animals were immediately post-dosed with PHA, the lectin was administered two hours post 5-FU injection by gavage. Animals neither pre- or post dosed with PHA were administered with 1 ml 0.9% saline by gavage. After 3 days, animals in three of the groups were administered a dose of 150 mg/kg body weight 5-FU. Body weight of each animal was recorded daily and the average body weight calculated.
At the end of the experiment, the animals were sacrificed and then dissected. The dry weights of the major organs were recorded for each animal and the average weights calcurated.
After 7 days, blood was collected from the animals and both the key molecular and cellular components were analysed.

[3] = Paired control 50 mg/kg/day: saline gavage
[4] = Paired control 100 mg/kg/day: saline gavage
[5] = Paired control 200 mg/kg/day: saline gavage
[6] = Treatment 2: LA 3d, inject 5-FU (150 mg/kg i.p.), LA 4d, after 7 days
[7] = Treatment 2: LA 3d, inject 5-FU (150 mg/kg i.p.), LA 4d, blood after 7 days

**Q.** What does the source list for `O=c1[nH]cc(F)c(=O)[nH]1` [5-FU, 5-fluorouracil]?
**A.** Heum wet weight [1, 3]: 722 mg; Jejunum wet weight [1, 3]: 761 mg; Heum wet weight [1, 4]: 747 mg; Jejunum wet weight [1, 4]: 783 mg; Heum wet weight [1, 5]: 753 mg; Jejunum wet weight [1, 5]: 848 mg; Caecum average dry weight [2, 6]: 99 ± 11 mg; Colon average dry weight [2, 6]: 130 ± 11 mg; Ileum average dry weight [2, 6]: 94 ± 11 mg; Jejunum average dry weight [2, 6]: 90 ± 8 mg; Small intestine average dry weight [2, 6]: 509 ± 55 mg; Stomach average dry weight [2, 6]: 140 ± 7 mg; HGB [2, 7]: 12.7 g/100ml; MCH [2, 7]: 17.3 pg; MCHC [2, 7]: 34.3 g/100ml; MCV [2, 7]: 50.4 µm^3; PLT [2, 7]: 274x10^3 no/mm^3; WBC [2, 7]: 3x10^3 no/mm^3; fresh body weight ([2]; Treatment 2: LA 3d, inject 5-FU (150 mg/kg i.p.), LA 4d, column 1 of 8 (day not given)): 102.5 g; fresh body weight ([2]; Treatment 2: LA 3d, inject 5-FU (150 mg/kg i.p.), LA 4d, column 2 of 8 (day not given)): 99.9 g; fresh body weight ([2]; Treatment 2: LA 3d, inject 5-FU (150 mg/kg i.p.), LA 4d, column 3 of 8 (day not given)): 98.8 g; fresh body weight ([2]; Treatment 2: LA 3d, inject 5-FU (150 mg/kg i.p.), LA 4d, column 4 of 8 (day not given)): 101.9 g; fresh body weight ([2]; Treatment 2: LA 3d, inject 5-FU (150 mg/kg i.p.), LA 4d, column 5 of 8 (day not given)): 108 g; fresh body weight ([2]; Treatment 2: LA 3d, inject 5-FU (150 mg/kg i.p.), LA 4d, column 6 of 8 (day not given)): 110.2 g; fresh body weight ([2]; Treatment 2: LA 3d, inject 5-FU (150 mg/kg i.p.), LA 4d, column 7 of 8 (day not given)): 107.9 g; fresh body weight ([2]; Treatment 2: LA 3d, inject 5-FU (150 mg/kg i.p.), LA 4d, column 8 of 8 (day not given)): 106.2 g; daily food intake ([2]; Treatment 2: LA 3d, inject 5-FU (150 mg/kg i.p.), LA 4d, day 1 (pair fed, before injection)): 4.8 g; daily food intake ([2]; Treatment 2: LA 3d, inject 5-FU (150 mg/kg i.p.), LA 4d, day 2 (pair fed, before injection)): 6.22 g; daily food intake ([2]; Treatment 2: LA 3d, inject 5-FU (150 mg/kg i.p.), LA 4d, day 3 (pair fed, before injection)): 9.22 g; daily food intake ([2]; Treatment 2: LA 3d, inject 5-FU (150 mg/kg i.p.), LA 4d, day 4): 11.3 g; daily food intake ([2]; Treatment 2: LA 3d, inject 5-FU (150 mg/kg i.p.), LA 4d, day 5): 10.4 g; daily food intake ([2]; Treatment 2: LA 3d, inject 5-FU (150 mg/kg i.p.), LA 4d, day 6): 6.8 g; daily food intake ([2]; Treatment 2: LA 3d, inject 5-FU (150 mg/kg i.p.), LA 4d, day 7): 5.9 g; reduction of small intestine dry weight ([2]; only lactalbumin in the diet, 5-FU 150 mg/kg): ~50%
